Consider 14 compounds from PMC8910447 (International Journal of Molecular Sciences, 2022).

One data set deals with EBOVpp. Nature of the data set: microbe, parasite or virus in culture. The data set is classed as cell-based, Zaire ebolavirus. The following applies: for IC50: A549, read-out: IC50 (M) against infection with EBOVpp; for pIC50: A549, n = 3, read-out: EBOVpp IC50.
The next data set can be described thus: in vitro. The following applies: human.
In the next data set the target is EBOV-GP (Zaire ebolavirus, UniProt Q05320). The experiment in a line: biochemical. Format: binding, Ebola virus.
Data set [1] has as its system pCMV C-His (negative control). Format: binding.
Data set [2] concerns infectious recombinant EBOV. The following applies: read-out: IC50 against infectious recombinant EBOV infection; cited from earlier work.

pIC50, pKd: −log10 of the molar value. Like-named read-outs stand apart in the source and are kept apart here.

EBOV-GP, sequence (Q05320 33-676 limits assumed): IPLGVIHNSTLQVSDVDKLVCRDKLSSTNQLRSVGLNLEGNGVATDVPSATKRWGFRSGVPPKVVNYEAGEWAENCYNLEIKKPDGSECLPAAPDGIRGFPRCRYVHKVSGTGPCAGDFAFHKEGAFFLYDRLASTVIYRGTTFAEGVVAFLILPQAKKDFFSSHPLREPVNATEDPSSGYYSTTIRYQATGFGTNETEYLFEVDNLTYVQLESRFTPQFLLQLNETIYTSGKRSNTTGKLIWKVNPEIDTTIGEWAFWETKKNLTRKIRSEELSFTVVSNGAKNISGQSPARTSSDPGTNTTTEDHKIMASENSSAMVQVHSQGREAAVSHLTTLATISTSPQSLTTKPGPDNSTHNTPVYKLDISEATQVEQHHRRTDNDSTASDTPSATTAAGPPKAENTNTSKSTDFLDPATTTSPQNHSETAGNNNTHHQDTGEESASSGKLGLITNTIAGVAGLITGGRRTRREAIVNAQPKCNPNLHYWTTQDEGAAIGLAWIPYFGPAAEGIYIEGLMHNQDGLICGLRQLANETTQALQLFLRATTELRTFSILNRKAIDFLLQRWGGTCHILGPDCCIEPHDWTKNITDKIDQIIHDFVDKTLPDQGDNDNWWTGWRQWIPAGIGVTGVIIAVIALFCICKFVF

With `Oc1cc(O)c2c(c1)O[C@H](c1ccc(O)c(O)c1)[C@H](O)C2` [(−) Epicatechin (5), (−)-epicatechin], in the data set on EBOVpp, the “Selectivity Index (SI)” value was >7.79. Besides, in the data set on EBOVpp (Zaire ebolavirus), the half-maximal inhibitory concentration (IC50) was found to be 2.21e-05 M and the pIC50 is 4.66. In “in vitro”, the CC50 is > 172 µM.
Take `Oc1cc(O)c2c(c1)O[C@H](c1ccc(O)c(O)c1)[C@H](O)[C@H]2c1c(O)cc(O)c2c1O[C@H](c1ccc(O)c(O)c1)[C@H](O)C2` [Procyanidin B2 (1), procyanidin B2]: the “Selectivity Index (SI)” value in the data set on EBOVpp is reported as >104. Besides, in the data set with EBOVpp (Zaire ebolavirus), the IC50 is 8.29e-07 M and the pIC50 is 6.08. Besides, at EBOV-GP, the pKd is 4.89. Also, the “binding curve with the negative control” value in data set [1] is reported as “could not produce a binding curve”. The CC50 in “in vitro” is > 86.5 µM.
On to `Oc1cc(O)c2c(c1)O[C@H](c1cc(O)c(O)c(O)c1)[C@H](O)C2` [Epigallocatechin (11), epigallocatechin], for which, in the data set on EBOVpp, the “Selectivity Index (SI)” value was >29.5. Also, in the data set on EBOVpp (Zaire ebolavirus), the IC50 was found to be 5.53e-06 M and the pIC50 is 5.26. Moreover, the CC50 in the data set “in vitro” was > 163 µM.
Turning to `CN(C)CCOc1ccc(/C(=C(/CCCl)c2ccccc2)c2ccccc2)cc1` [Toremifene, toremifene, reference compound], the pIC50 in the data set with EBOVpp (Zaire ebolavirus) is 6.77. Besides, the “binding curve with the negative control” value in data set [1] was “could not produce a binding curve”. In the data set “in vitro”, this compound yielded a CC50 of 2.92 µM.
`Oc1cc(O)c2c(c1)O[C@H](c1cc(O)c(O)c(O)c1)[C@@H](O)C2` [Gallocatechin (10), gallocatechin]: in the data set on EBOVpp, the “Selectivity Index (SI)” value was >13.1. Also, in the data set on EBOVpp (Zaire ebolavirus), the IC50 is 1.24e-05 M and the pIC50 is 4.91. Also, the CC50 in the data set “in vitro” was > 163 µM.
On to `O=C(O[C@@H]1Cc2c(O)cc(O)cc2O[C@@H]1c1ccc(O)c(O)c1)c1ccccc1` [13b, (2R,3R)-2-(3,4-Dihydroxyphenyl)-5,7-dihydroxychroman-3-yl benzoate], for which, in the data set on EBOVpp (Zaire ebolavirus, A549, read-out: inhibitory effect against EBOVpp infection), the inhibition at 10 µM was > 60%.
For the compound `Oc1cc(O)c2c(c1)O[C@H](c1ccc(O)c(O)c1)[C@H](O)[C@H]2c1c(O)cc(O)c2c1O[C@H](c1ccc(O)c(O)c1)[C@@H](O)C2` [Procyanidin B1 (6), Procyanidin B1], the “Selectivity Index (SI)” value with EBOVpp is recorded as >91.1. Further, in the data set with EBOVpp (Zaire ebolavirus), the IC50 came out at 9.13e-07 M and the pIC50 was 6.02. For the same compound, the CC50 in the data set “in vitro” was > 86.5 µM.
`Oc1cc(O)c2c(c1)O[C@H](c1ccc(O)c(O)c1)[C@H](O)[C@H]2c1c(O)cc(O)c2c1O[C@H](c1ccc(O)c(O)c1)[C@H](O)[C@H]2c1c(O)cc(O)c2c1O[C@H](c1ccc(O)c(O)c1)[C@H](O)C2` [Procyanidin C1 (2), procyanidin C1]: the negative logarithm of the IC50 (pIC50) in the data set on EBOVpp (Zaire ebolavirus) is < 4.94. Also, in “in vitro”, the CC50 is > 11.5 µM.
In the case of `Oc1cc(O)c2c(c1)O[C@H](c1ccc(O)c(O)c1)[C@@H](O)[C@@H]2c1c(O)cc(O)c2c1O[C@H](c1ccc(O)c(O)c1)[C@@H](O)C2` [Procyanidin B3 (7), Procyanidin B3], the “Selectivity Index (SI)” value in the data set with EBOVpp was >57.1. Besides, the negative logarithm of the IC50 (pIC50) with EBOVpp (Zaire ebolavirus) was 5.82. Also, the CC50 in the data set “in vitro” is > 86.5 µM.
With `Oc1cc(O)c2c(c1)O[C@H](c1ccc(O)c(O)c1)[C@@H](O)C2` [(+) Catechin (4), (+)-catechin], in the data set on EBOVpp (Zaire ebolavirus), the IC50 worked out at 3.6e-05 M and the pIC50 is 4.44. Moreover, the CC50 in “in vitro” is > 34.5 µM.
As for `Oc1cc(O)c2c(c1)OC(c1ccc(O)c(O)c1)C(O)C2c1c(O)cc(O)c2c1OC(c1ccc(O)c(O)c1)C(O)C2c1c(O)cc(O)c2c1OC(c1ccc(O)c(O)c1)C(O)C2c1c(O)cc(O)c2c1OC(c1ccc(O)c(O)c1)C(O)C2` (stereo not drawn) [Procyanidin tetramer (3), epicatechin-(4β→8)-epicatechin-(4β→8)-epicatechin-(4β→8)-epicatechin], in the data set on EBOVpp (Zaire ebolavirus), the pIC50 was < 4.94. The CC50 in “in vitro” was > 11.5 µM.
Turning to `O=C(O[C@@H]1Cc2c(O)cc(O)cc2O[C@@H]1c1ccc(O)c(O)c1)c1cc(O)c(O)c(O)c1` [ECG (9), epicatechin 3-O-gallate], the “Selectivity Index (SI)” value with EBOVpp was >7.68. For the same compound, in the data set with EBOVpp (Zaire ebolavirus), the IC50 amounted to 2.95e-06 M and the pIC50 is 5.53. In addition, the CC50 in the data set “in vitro” is > 22.6 µM.
For `O=C(O[C@@H]1Cc2c(O)cc(O)cc2O[C@@H]1c1cc(O)c(O)c(O)c1)c1cc(O)c(O)c(O)c1` [EGCG (8), (−)-epigallocatechin-3-O-gallate] the same measures were >7.81, 2.8e-06 M, 5.55 and > 21.8 µM.
For the compound `O=C(O)c1cc(O)c(O)c(O)c1` [gallic acid], the pIC50 in data set [2] was 4.60.
